Laboratory results published in PubChem BioAssay AID248 (DTP/NCI, 2004).
Values joined by “and” are separate entries in the source; they are usually repeats but may differ in a detail not shown here. Equal entries are not always repeated. Inconclusive results and toxic doses are left out.

System: L1210 leukemia ip in BDF1 mice, survival T/C
Assay: NCI In Vivo Anticancer Drug Screen. Data for tumor model L1210 Leukemia (intraperitoneal) in B6D2F1 (BDF1) mice
Details: endpoint: mean survival time, higher = longer survival
Outline: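 Antitumor effect is assessed in tumor-bearing animals. Survival in the compound arm is compared with a vehicle-dosed control arm and expressed as their quotient.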

[1] = dose: 100.0 mg/kg/injection, schedule: Q01DX009 (ip), vehicle: saline with Tween-80
[2] = dose: 50.0 mg/kg/injection, schedule: Q01DX009 (ip), vehicle: saline
[3] = dose: 100.0 mg/kg/injection, schedule: Q01DX009 (ip), vehicle: saline
[4] = dose: 100.0 mg/kg/injection, schedule: Q04DX003 (ip), vehicle: saline
[5] = dose: 200.0 mg/kg/injection, schedule: Q01DX009 (ip), vehicle: saline
[6] = dose: 200.0 mg/kg/injection, schedule: Q04DX003 (ip), vehicle: saline
[7] = dose: 12.5 mg/kg/injection, schedule: Q01DX009 (ip), vehicle: Klucel (hydroxypropylcellulose) (HPC)
[8] = dose: 25.0 mg/kg/injection, schedule: Q01DX009 (ip), vehicle: Klucel (hydroxypropylcellulose) (HPC)
[9] = dose: 50.0 mg/kg/injection, schedule: Q01DX009 (ip), vehicle: Klucel (hydroxypropylcellulose) (HPC)
[10] = dose: 100.0 mg/kg/injection, schedule: Q04DX003 (ip), vehicle: Klucel (hydroxypropylcellulose) (HPC)
[11] = dose: 100.0 mg/kg/injection, schedule: Q04DX003 (ip), vehicle: saline with Tween-80
[12] = dose: 200.0 mg/kg/injection, schedule: Q04DX003 (ip), vehicle: saline with Tween-80
[13] = dose: 400.0 mg/kg/injection, schedule: Q04DX003 (ip), vehicle: saline with Tween-80

With `CC1CN=C(c2cccc(NC(=O)Nc3ccc(NC(=O)Nc4cccc(C5=NCC(C)N5)c4)cc3)c2)N1` (stereo not given) the T/C (dose: 4.5 mg/kg/injection, schedule: Q01DX Z (ip), vehicle: carboxymethylcellulose (CMC)) was 118 % of control, the T/C (dose: 36.0 mg/kg/injection, schedule: Q01DX Z (ip), vehicle: carboxymethylcellulose (CMC)) was 202 % of control and 217 % of control and the T/C (dose: 45.0 mg/kg/injection, schedule: Q01DX Z (ip), vehicle: carboxymethylcellulose (CMC)) was 153 % of control. The T/C (dose: 62.0 mg/kg/injection, schedule: Q01DX Z (oral), vehicle: carboxymethylcellulose (CMC)) was 113 % of control, the T/C (dose: 63.0 mg/kg/injection, schedule: Q01DX Z (ip), vehicle: carboxymethylcellulose (CMC)) was 112 % of control and the T/C (dose: 72.0 mg/kg/injection, schedule: Q01DX Z (ip), vehicle: carboxymethylcellulose (CMC)) was 101 % of control and 111 % of control. For the same compound, the T/C (dose: 125.0 mg/kg/injection, schedule: Q01DX Z (oral), vehicle: carboxymethylcellulose (CMC)) was 113 % of control, the T/C (dose: 250.0 mg/kg/injection, schedule: Q01DX Z (oral), vehicle: carboxymethylcellulose (CMC)) was 115 % of control and the T/C (dose: 500.0 mg/kg/injection, schedule: Q01DX Z (oral), vehicle: carboxymethylcellulose (CMC)) was 109 % of control.
For `O=S(=O)(OC1CCCCC1Br)c1ccc(Br)cc1` (stereo not given), the T/C (dose: 50.0 mg/kg/injection, schedule: Q01DX009 (ip), vehicle: saline with Tween-80) was 98 % of control and the T/C [1] was 95 % of control.
`CS(=O)(=O)c1nc(N)nc2nc[nH]c12` was tested, and the T/C (dose: 7.5 mg/kg/injection, schedule: Q01DX Z (ip), vehicle: methylcellulose (MC)) was 95 % of control, the T/C (dose: 10.0 mg/kg/injection, schedule: Q01DX001 (ip), vehicle: carboxymethylcellulose (CMC)) was 101 % of control and the T/C (dose: 12.5 mg/kg/injection, schedule: Q01DX009 (ip), vehicle: saline) was 109 % of control. The T/C (dose: 15.0 mg/kg/injection, schedule: Q01DX Z (ip), vehicle: methylcellulose (MC)) was 115 % of control, the T/C (dose: 25.0 mg/kg/injection, schedule: Q01DX009 (ip), vehicle: saline) was 100 % of control and the T/C (dose: 30.0 mg/kg/injection, schedule: Q01DX Z (ip), vehicle: methylcellulose (MC)) was 117 % of control. The T/C (dose: 50.0 mg/kg/injection, schedule: Q01DX001 (ip), vehicle: saline) was 95 % of control, the T/C [2] was 102 % of control and the T/C (dose: 50.0 mg/kg/injection, schedule: Q04DX003 (ip), vehicle: saline) was 98 % of control. For the same compound, the T/C (dose: 60.0 mg/kg/injection, schedule: Q01DX Z (ip), vehicle: carboxymethylcellulose (CMC)) was 119 % of control, the T/C (dose: 60.0 mg/kg/injection, schedule: Q01DX Z (ip), vehicle: methylcellulose (MC)) was 123 % of control and the T/C (dose: 75.0 mg/kg/injection, schedule: Q01DX Z (ip), vehicle: methylcellulose (MC)) was 120 % of control. The T/C (dose: 100.0 mg/kg/injection, schedule: Q01DX001 (ip), vehicle: saline) was 101 % of control, the T/C [3] was 97 % of control and the T/C [4] was 93 % of control. The T/C (dose: 200.0 mg/kg/injection, schedule: Q01DX001 (ip), vehicle: carboxymethylcellulose (CMC)) was 100 % of control, the T/C (dose: 200.0 mg/kg/injection, schedule: Q01DX001 (ip), vehicle: saline) was 117 % of control and the T/C [5] was 103 % of control. For the same compound, the T/C [6] was 98 % of control.
For `CCCc1cc2c(cc1CS(=O)(=O)c1ccccc1)OCO2`, the T/C [7] was 97 % of control, the T/C [8] was 112 % of control and the T/C [9] was 108 % of control. For the same compound, the T/C (dose: 100.0 mg/kg/injection, schedule: Q01DX009 (ip), vehicle: Klucel (hydroxypropylcellulose) (HPC)) was 101 % of control and 102 % of control, the T/C [10] was 94 % of control and the T/C (dose: 200.0 mg/kg/injection, schedule: Q01DX009 (ip), vehicle: Klucel (hydroxypropylcellulose) (HPC)) was 102 % of control. For the same compound, the T/C (dose: 200.0 mg/kg/injection, schedule: Q04DX003 (ip), vehicle: Klucel (hydroxypropylcellulose) (HPC)) was 97 % of control and the T/C (dose: 400.0 mg/kg/injection, schedule: Q04DX003 (ip), vehicle: Klucel (hydroxypropylcellulose) (HPC)) was 101 % of control.
For `CCC1(C)CC1(Cl)Cl` (stereo not given), the T/C (dose: 100.0 mg/kg/injection, schedule: Q04DX003 (ip), vehicle: other) was 105 % of control, the T/C (dose: 200.0 mg/kg/injection, schedule: Q04DX003 (ip), vehicle: other) was 102 % of control and the T/C (dose: 400.0 mg/kg/injection, schedule: Q04DX003 (ip), vehicle: other) was 100 % of control.
`O=C(O)C12C3C4CC5C3C1C5C42` (stereo not given) was tested, and the T/C [11] was 98 % of control, the T/C [12] was 106 % of control and the T/C [13] was 97 % of control.
`COc1nc(N)c(C#N)cc1C#N` was tested, and the T/C [7] was 96 % of control, the T/C [8] was 102 % of control and the T/C [9] was 93 % of control. The T/C [10] was 92 % of control.
For `CC1(C)N=C(N)N=C(N)N1c1cccc(CCCCc2ccc(Cl)c(S(=O)(=O)F)c2)c1`, the T/C (dose: 7.0 mg/kg/injection, schedule: Q04DX003 (ip), vehicle: saline) was 97 % of control, the T/C (dose: 12.5 mg/kg/injection, schedule: Q01DX009 (ip), vehicle: saline sonified) was 91 % of control and the T/C (dose: 12.5 mg/kg/injection, schedule: Q04DX003 (ip), vehicle: saline sonified) was 100 % of control. For the same compound, the T/C (dose: 14.0 mg/kg/injection, schedule: Q04DX003 (ip), vehicle: saline) was 95 % of control, the T/C (dose: 25.0 mg/kg/injection, schedule: Q04DX003 (ip), vehicle: saline sonified) was 102 % of control and the T/C (dose: 28.0 mg/kg/injection, schedule: Q04DX003 (ip), vehicle: saline) was 88 % of control. For the same compound, the T/C (dose: 50.0 mg/kg/injection, schedule: Q04DX003 (ip), vehicle: saline sonified) was 96 % of control and the T/C (dose: 56.0 mg/kg/injection, schedule: Q04DX003 (ip), vehicle: saline) was 93 % of control.
In the case of `Cc1cnc2c(N)nn(C)c2n1`, the T/C [2] was 102 % of control, the T/C [3] was 110 % of control and the T/C (dose: 100.0 mg/kg/injection, schedule: Q04DX003 (ip), vehicle: alcohol) was 102 % of control. For the same compound, the T/C (dose: 200.0 mg/kg/injection, schedule: Q04DX003 (ip), vehicle: alcohol) was 98 % of control.
For `Cc1ccc(N2P(N(C)C)N(c3ccc(C)cc3)P2(=O)N(C)C)cc1` (stereo not given), the T/C (dose: 100.0 mg/kg/injection, schedule: Q04DX002 (ip), vehicle: Klucel (hydroxypropylcellulose) (HPC)) was 111 % of control, the T/C (dose: 200.0 mg/kg/injection, schedule: Q04DX002 (ip), vehicle: Klucel (hydroxypropylcellulose) (HPC)) was 101 % of control and the T/C (dose: 400.0 mg/kg/injection, schedule: Q04DX002 (ip), vehicle: Klucel (hydroxypropylcellulose) (HPC)) was 101 % of control.
With `C/C=C(\C)COC(=O)c1ccc([N+](=O)[O-])cc1` the T/C (dose: 100.0 mg/kg/injection, schedule: Q01DX001 (ip), vehicle: other) was 104 % of control, the T/C (dose: 200.0 mg/kg/injection, schedule: Q01DX001 (ip), vehicle: other) was 98 % of control and the T/C (dose: 400.0 mg/kg/injection, schedule: Q01DX001 (ip), vehicle: other) was 93 % of control.
For `CCCCc1ccc(Sc2cccc3c2C(=O)c2c(Sc4ccc(CCCC)cc4)cccc2C3=O)cc1`, the T/C [1] was 97 % of control, the T/C [11] was 93 % of control and the T/C (dose: 200.0 mg/kg/injection, schedule: Q01DX009 (ip), vehicle: saline with Tween-80) was 102 % of control. For the same compound, the T/C [12] was 97 % of control, the T/C (dose: 400.0 mg/kg/injection, schedule: Q01DX009 (ip), vehicle: saline with Tween-80) was 92 % of control and the T/C [13] was 97 % of control.
With `COc1ccc2nc(NC(=O)NCCCl)sc2c1` the T/C (dose: 100.0 mg/kg/injection, schedule: Q01DX001 (ip), vehicle: Klucel (hydroxypropylcellulose) (HPC)) was 90 % of control, the T/C (dose: 200.0 mg/kg/injection, schedule: Q01DX001 (ip), vehicle: Klucel (hydroxypropylcellulose) (HPC)) was 95 % of control and the T/C (dose: 400.0 mg/kg/injection, schedule: Q01DX001 (ip), vehicle: Klucel (hydroxypropylcellulose) (HPC)) was 91 % of control.
`CCC(=O)O[C@H]1CC[C@H]2[C@@H]3CC[C@H]4CC(=O)[C@H](C)C[C@]4(C)[C@H]3CC[C@]12C` was tested, and the T/C (dose: 44.13 mg/kg/injection, schedule: Q01DX Z (sc), vehicle: steriod suspending solution) was 96 % of control, the T/C (dose: 88.25 mg/kg/injection, schedule: Q01DX Z (sc), vehicle: steriod suspending solution) was 104 % of control and the T/C (dose: 176.5 mg/kg/injection, schedule: Q01DX Z (sc), vehicle: steriod suspending solution) was 103 % of control. For the same compound, the T/C (dose: 353.0 mg/kg/injection, schedule: Q01DX Z (sc), vehicle: steriod suspending solution) was 100 % of control.
`CC(C)C1NC(=O)NC1=O` (stereo not given) was tested, and the T/C [3] was 98 % of control, the T/C [4] was 103 % of control and the T/C [5] was 105 % of control. For the same compound, the T/C [6] was 101 % of control, the T/C (dose: 400.0 mg/kg/injection, schedule: Q01DX009 (ip), vehicle: saline) was 103 % of control and the T/C (dose: 400.0 mg/kg/injection, schedule: Q04DX003 (ip), vehicle: saline) was 97 % of control.
